Measured values published in ChEMBL document CHEMBL1201862, “PubChem BioAssay data set” (2004).
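48-hour exposure; five concentrations; linearly interpolated endpoints. GI50 is the concentration that inhibits growth by half.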 Calls of active or inactive are those of the source. Rule as the data show it: active = GI50 up to about 1.1 µM and inactive = higher.

Experiments:
Assay in all cases: NCI tumour cell line growth inhibition, 48 h
ACHN = system: ACHN
SK-MEL-28 = system: SK-MEL-28
DU-145 = system: DU-145
NCI-H226 = system: NCI-H226
IGROV-1 = system: IGROV-1
PC-3 = system: PC-3
SR = system: SR
HCC 2998 = system: HCC 2998
MDA-MB-231 = system: MDA-MB-231
U-251 = system: U-251
M14 = system: M14
MOLT-4 = system: MOLT-4
MDA-N = system: MDA-N
OVCAR-5 = system: OVCAR-5
MCF7 = system: MCF7
CAKI-1 = system: CAKI-1
HOP-62 = system: HOP-62
M19-MEL = system: M19-MEL
OVCAR-8 = system: OVCAR-8

## CN(C)CCNC(=O)c1cccc2nc3c4ccccc4c4ccccc4c3nc12
ACHN
  GI50: 5010 nM (inactive)
SK-MEL-28
  GI50: 1790 nM (inactive)
DU-145
  GI50: 1790 nM (inactive)
NCI-H226
  GI50: 9860 nM (inactive)
IGROV-1
  GI50: 3380 nM (inactive)
PC-3
  GI50: 1650 nM (inactive)
SR
  GI50: 773 nM (active)
HCC 2998
  GI50: 5270 nM (inactive)
MDA-MB-231
  GI50: 1820 nM (inactive)
U-251
  GI50: 2000 nM (inactive)
M14
  GI50: 2290 nM (inactive)
MOLT-4
  GI50: 748 nM (active)
MDA-N
  GI50: 1650 nM (inactive)
OVCAR-5
  GI50: 7670 nM (inactive)
MCF7
  GI50: 1140 nM (inactive)
CAKI-1
  GI50: 17600 nM (inactive)
HOP-62
  GI50: 16200 nM (inactive)
M19-MEL
  GI50: 1880 nM (inactive)
OVCAR-8
  GI50: 2020 nM (inactive)
